Laboratory results as given in ChEMBL document CHEMBL3259565 (ACS Med Chem Lett, 2014).
Activity calls are given as the source filed them. The calls are words filed in the database; no cut-off is given here.

Legend:
[1] = biological target: T1, Histone-lysine N-methyltransferase EHMT1 (Homo sapiens, UniProt Q9H9B1); assay: Inhibition of methyltransferase activity of EHMT1 (unknown origin)-mediated dimethylation of a biotinylated histone H3 peptide at lysine-9 by FRET-based LANCE ultra G9a assay
T1 sequence (Q9H9B1 whole entry): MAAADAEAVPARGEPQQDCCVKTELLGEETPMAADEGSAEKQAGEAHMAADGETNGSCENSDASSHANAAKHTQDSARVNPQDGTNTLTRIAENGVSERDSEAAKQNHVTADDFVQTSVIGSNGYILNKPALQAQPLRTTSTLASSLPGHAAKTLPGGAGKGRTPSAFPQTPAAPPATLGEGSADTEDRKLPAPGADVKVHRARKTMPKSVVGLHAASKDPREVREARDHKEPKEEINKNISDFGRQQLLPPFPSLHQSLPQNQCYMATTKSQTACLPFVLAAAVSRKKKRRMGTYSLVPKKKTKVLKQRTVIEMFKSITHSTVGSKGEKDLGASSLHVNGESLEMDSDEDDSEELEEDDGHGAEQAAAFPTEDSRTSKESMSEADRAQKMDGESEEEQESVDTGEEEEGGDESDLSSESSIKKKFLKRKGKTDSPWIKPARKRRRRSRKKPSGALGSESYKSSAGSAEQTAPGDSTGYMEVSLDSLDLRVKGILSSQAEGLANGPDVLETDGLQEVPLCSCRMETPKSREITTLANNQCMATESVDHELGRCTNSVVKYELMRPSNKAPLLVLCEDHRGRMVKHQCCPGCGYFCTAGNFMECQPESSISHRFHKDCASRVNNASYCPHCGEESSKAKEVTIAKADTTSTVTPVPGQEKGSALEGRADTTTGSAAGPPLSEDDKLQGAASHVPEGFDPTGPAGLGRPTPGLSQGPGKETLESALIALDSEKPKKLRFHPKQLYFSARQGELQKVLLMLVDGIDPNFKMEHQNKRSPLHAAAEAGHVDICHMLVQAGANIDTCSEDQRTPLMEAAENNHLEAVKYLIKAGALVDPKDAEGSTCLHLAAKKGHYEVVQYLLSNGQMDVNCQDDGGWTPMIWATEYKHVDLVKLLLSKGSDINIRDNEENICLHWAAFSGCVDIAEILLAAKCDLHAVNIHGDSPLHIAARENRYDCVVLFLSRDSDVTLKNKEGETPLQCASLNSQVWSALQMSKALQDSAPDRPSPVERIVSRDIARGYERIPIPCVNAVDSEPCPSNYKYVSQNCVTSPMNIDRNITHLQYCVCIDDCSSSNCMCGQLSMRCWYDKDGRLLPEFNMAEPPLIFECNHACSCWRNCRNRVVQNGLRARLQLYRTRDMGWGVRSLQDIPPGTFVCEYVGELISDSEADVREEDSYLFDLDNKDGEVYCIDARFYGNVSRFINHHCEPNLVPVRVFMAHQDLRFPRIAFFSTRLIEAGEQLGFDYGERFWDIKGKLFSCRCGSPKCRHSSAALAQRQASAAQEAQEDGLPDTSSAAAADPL

[2] = biological target: T2, Histone-lysine N-methyltransferase EHMT1 (Homo sapiens) (UniProt Q9H9B1); assay: Inhibition of methyltransferase activity of EHMT1 (unknown origin)-mediated dimethylation of a biotinylated histone H3 peptide at lysine-9 at 100 uM by FRET-based LANCE ultra G9a assay
T2 sequence (whole entry): T1 sequence (Q9H9B1 whole entry)

[3] = biological target: T3, Histone-lysine N-methyltransferase EHMT2 (Homo sapiens, UniProt Q96KQ7); assay: Inhibition of methyltransferase activity of EHMT2 (unknown origin)-mediated dimethylation of a biotinylated histone H3 peptide at lysine-9 by FRET-based LANCE ultra G9a assay
T3 sequence (Q96KQ7 whole entry): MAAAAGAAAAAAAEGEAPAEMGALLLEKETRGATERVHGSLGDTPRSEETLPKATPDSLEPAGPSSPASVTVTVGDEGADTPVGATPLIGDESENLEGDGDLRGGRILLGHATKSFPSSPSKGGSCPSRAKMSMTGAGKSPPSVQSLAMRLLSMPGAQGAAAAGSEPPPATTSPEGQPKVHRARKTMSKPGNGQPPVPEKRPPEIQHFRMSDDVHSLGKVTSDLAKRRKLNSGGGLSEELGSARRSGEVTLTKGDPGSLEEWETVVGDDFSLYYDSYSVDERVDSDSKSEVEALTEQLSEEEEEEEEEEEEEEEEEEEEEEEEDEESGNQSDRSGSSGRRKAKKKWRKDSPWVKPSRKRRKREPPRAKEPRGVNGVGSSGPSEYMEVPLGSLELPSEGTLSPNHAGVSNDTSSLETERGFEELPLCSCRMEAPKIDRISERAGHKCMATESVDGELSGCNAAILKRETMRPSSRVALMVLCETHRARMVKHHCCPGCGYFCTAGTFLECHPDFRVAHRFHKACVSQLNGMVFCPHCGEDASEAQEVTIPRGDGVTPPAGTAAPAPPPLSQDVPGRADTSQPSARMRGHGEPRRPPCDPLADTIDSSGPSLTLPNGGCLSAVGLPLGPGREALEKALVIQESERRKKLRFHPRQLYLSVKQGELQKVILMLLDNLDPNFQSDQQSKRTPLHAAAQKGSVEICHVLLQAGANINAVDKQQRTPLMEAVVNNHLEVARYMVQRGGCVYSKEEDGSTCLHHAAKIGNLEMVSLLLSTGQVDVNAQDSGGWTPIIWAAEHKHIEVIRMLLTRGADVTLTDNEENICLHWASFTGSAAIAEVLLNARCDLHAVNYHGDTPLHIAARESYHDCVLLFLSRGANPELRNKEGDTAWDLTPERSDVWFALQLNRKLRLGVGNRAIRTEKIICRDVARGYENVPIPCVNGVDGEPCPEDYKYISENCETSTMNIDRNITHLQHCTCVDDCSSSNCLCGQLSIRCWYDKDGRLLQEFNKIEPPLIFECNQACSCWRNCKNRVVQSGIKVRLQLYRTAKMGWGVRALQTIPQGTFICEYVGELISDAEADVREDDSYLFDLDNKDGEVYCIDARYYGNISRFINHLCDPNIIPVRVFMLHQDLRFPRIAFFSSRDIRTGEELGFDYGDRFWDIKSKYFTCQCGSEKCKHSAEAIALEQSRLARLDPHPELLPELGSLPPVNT

[4] = biological target: T2, Histone-lysine N-methyltransferase EHMT1 (Homo sapiens); assay: Non-competitive inhibition of methyltransferase activity of EHMT1 (unknown origin)
[5] = biological target: T4, Histone-lysine N-methyltransferase EHMT2 (Homo sapiens) (UniProt Q96KQ7); assay: Non-competitive inhibition of methyltransferase activity of EHMT2 (unknown origin)
T4 sequence (whole entry): T3 sequence (Q96KQ7 whole entry)

[6] = biological target: T5, DNA (cytosine-5)-methyltransferase 1 (Homo sapiens, UniProt P26358); assay: Inhibition of DNMT1 (unknown origin) at 200 uM
[7] = biological target: Protein arginine N-methyltransferase 1 (Homo sapiens) (UniProt Q99873); assay: Inhibition of PRMT1 (unknown origin) at 200 uM
[8] = biological target: T6, Histone-lysine N-methyltransferase SETD7 (Homo sapiens) (UniProt Q8WTS6); assay: Inhibition of SET7/9 (unknown origin) at 200 uM
T6 sequence (whole entry): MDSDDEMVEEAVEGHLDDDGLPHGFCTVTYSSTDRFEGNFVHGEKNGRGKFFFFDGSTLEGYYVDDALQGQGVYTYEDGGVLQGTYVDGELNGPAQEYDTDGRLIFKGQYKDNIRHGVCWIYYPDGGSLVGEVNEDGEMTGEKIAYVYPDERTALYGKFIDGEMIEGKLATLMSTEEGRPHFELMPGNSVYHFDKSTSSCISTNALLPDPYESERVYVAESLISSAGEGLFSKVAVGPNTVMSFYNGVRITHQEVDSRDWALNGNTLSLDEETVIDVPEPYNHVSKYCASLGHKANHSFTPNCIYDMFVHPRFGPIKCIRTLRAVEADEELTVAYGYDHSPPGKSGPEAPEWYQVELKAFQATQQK

[9] = biological target: T5, DNA (cytosine-5)-methyltransferase 1; assay: Inhibition of DNMT1 (unknown origin)

Protein arginine N-methyltransferase 1 (Homo sapiens), sequence (Q99873 whole entry, looked up): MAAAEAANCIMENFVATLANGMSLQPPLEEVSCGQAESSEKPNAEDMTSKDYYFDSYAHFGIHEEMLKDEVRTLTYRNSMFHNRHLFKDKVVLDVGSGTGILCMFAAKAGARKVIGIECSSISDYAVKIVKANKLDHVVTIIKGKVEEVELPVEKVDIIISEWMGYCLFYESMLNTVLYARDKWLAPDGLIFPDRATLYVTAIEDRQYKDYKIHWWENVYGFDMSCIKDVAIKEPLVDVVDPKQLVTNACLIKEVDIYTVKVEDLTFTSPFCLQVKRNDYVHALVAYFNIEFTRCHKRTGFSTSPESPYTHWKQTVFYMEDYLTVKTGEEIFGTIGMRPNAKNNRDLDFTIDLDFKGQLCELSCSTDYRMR
T5 sequence (P26358 whole entry): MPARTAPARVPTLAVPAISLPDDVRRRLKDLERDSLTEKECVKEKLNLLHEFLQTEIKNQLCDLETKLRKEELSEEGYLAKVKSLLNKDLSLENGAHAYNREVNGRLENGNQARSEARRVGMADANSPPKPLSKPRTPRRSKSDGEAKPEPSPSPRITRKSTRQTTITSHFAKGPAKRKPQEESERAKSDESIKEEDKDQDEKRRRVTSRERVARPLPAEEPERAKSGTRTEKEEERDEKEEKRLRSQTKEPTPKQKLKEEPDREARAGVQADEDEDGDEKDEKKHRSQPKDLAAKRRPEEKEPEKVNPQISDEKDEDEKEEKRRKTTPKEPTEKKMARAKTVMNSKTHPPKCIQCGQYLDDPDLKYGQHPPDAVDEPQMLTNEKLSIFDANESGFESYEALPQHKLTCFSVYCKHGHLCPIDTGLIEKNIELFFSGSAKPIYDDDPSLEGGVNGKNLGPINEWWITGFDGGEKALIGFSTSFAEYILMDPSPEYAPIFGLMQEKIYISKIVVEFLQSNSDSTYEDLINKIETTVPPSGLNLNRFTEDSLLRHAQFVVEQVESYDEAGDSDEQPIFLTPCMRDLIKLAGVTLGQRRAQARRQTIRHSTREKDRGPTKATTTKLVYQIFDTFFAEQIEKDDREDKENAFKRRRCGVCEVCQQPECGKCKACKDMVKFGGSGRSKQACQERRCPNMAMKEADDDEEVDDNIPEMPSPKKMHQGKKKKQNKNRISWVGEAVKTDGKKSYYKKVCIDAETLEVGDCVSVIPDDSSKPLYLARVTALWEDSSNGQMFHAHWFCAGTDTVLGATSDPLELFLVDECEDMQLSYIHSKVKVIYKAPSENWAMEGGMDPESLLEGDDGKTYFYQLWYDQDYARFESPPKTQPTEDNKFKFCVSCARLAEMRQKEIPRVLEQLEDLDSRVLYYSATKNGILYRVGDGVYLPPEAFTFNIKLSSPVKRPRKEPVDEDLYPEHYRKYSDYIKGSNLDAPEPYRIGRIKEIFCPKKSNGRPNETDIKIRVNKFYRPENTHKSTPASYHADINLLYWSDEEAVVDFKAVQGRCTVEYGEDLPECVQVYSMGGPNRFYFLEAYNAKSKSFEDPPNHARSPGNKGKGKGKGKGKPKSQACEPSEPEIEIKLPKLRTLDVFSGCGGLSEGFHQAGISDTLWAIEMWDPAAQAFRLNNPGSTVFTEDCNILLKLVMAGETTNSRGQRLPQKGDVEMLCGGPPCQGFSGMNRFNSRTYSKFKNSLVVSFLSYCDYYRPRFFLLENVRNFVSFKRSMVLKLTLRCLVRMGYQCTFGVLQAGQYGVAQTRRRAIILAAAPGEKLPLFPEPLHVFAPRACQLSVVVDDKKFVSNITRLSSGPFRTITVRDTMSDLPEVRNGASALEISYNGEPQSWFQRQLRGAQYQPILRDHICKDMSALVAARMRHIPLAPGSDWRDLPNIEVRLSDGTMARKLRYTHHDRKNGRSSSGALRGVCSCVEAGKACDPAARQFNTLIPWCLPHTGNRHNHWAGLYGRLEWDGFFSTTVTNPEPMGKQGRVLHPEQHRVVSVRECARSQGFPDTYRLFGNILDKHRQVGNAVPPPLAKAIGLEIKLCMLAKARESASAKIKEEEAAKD

Compound: Nc1ncnc2c1ncn2[C@@H]1O[C@H](C[C@@H](N)CC[C@H](N)C(=O)O)[C@@H](O)[C@H]1O [SINEFUNGIN]
- IC50 [1]: 513 µM

Compound: CCCCC[C@H]1O[C@@H](n2cnc3c(N)ncnc32)[C@H](O)[C@@H]1O
- inhibition [2]: > 40%
- IC50 [1]: 87 µM
- IC50 [3]: 103 µM
- inhibition [4]: Active
- inhibition [5]: Active
- inhibition [6]: inactive
- inhibition [7]: inactive
- inhibition [8]: inactive

Compound: Nc1ncnc2c1ncn2[C@@H]1O[C@H](CCCc2ccccc2)[C@@H](O)[C@H]1O
- inhibition [2]: > 40%
- IC50 [1]: 235 µM
- IC50 [3]: 190 µM

Compound: Nc1ncnc2c1ncn2[C@@H]1O[C@H](CC(N)CC2CCCCC2)[C@@H](O)[C@H]1O (stereo partly drawn)
- inhibition [2]: > 40%
- IC50 [1]: 1.5 µM
- IC50 [3]: 1.6 µM
- inhibition [4]: Active
- inhibition [5]: Active
- IC50 [9]: 179 µM
- inhibition [7]: inactive
- inhibition [8]: inactive

Compound: COc1ccc(CC(N)C[C@H]2O[C@@H](n3cnc4c(N)ncnc43)[C@H](O)[C@@H]2O)cc1OC (stereo partly drawn)
- inhibition [2]: > 40%
- IC50 [1]: 147 µM
- IC50 [3]: 157 µM
